Test results published in patent US20070066628A1 (Wyeth, priority 2005, published 2007).
Several values for one entry are separate records, joined by “and”; a condition that tells them apart may be missing. Equal entries are not always repeated.

Assays:
[1] = tested on: rat uterine decidualization; test: Rat decidualization assay; settings: s.c.; for Estimated EC50 for uterine weight (decidual response): ovariectomized female Sprague-Dawley rats, once daily for seven days, individual studies; for Estimated average EC50 for uterine weight (decidual response): ovariectomized rats, average of dose-response curves
Experimental: (2) Rat Decidualization Assay
(a) Objective: This procedure is used to evaluate the effect of progestins and antiprogestins on rat uterine decidualization and compares the relative potencies of various test compounds.
(b) Methods • A. Reagents • Test compounds are dissolved in 100% ethanol and mixed with corn oil (vehicle). Stock solutions of the test compounds in oil (the Mazola™ oil) are then prepared by heating (˜80° C.) the mixture to evaporate ethanol. Test compounds are subsequently diluted with 100% corn oil or 10% ethanol in corn oil prior to the treatment of animals. […] Ovariectomy is performed at least 10 days prior to treatment to reduce circulating sex steroids. Animals are housed under 12 hours light/dark cycle and given standard rat chow and water ad libitum. • C. […] Test compounds in 0.2 mL vehicle are administered by subcutaneous injection in the nape of the neck or by gavage using 0.5 mL. The animals are treated once daily for seven days. […] In all studies, a control group receiving vehicle is included. Determination of dose-response curves is carried out using doses with half log increases (e.g. 0.1, 0.3, 1.0, 3.0 mg/kg). • E. Decidual Induction • Approximately 24 hours after the third injection, decidualization is induced in one of the uterine horns by scratching the antimesometrial luminal epithelium with a blunt 21 G needle. The contralateral horn is not scratched and serves as an unstimulated control. Approximately 24 hours following the final treatment, rats are sacrificed by CO2 asphyxiation and body weight measured. Uteri are removed and trimmed of fat. […] The Huber M-estimator is used to down weight the outlying transformed observations for both dose-response curve fitting and one-way analysis of variance. JMP software (SAS Institute, Inc.) is used for both one-way ANOVA and non-linear dose-response analyses. • G. Reference Compounds:
All progestin reference compounds are run in full dose-response curves and the EC50 for uterine wet weight is calculated.

PR = target: T1, PR (Homo sapiens, UniProt P06401); test: T47D cell alkaline phosphatase assay; type: cell-based; settings: T47D cells, agonist mode; read-out: Alk. Phos. EC50
T1 construct: Frozen T47D cells were thawed in a 37° C. water bath and diluted to 280,000 cells/mL in culture medium; endogenous in cells; host or cells: T47D cells
T1 sequence (P06401 1-933): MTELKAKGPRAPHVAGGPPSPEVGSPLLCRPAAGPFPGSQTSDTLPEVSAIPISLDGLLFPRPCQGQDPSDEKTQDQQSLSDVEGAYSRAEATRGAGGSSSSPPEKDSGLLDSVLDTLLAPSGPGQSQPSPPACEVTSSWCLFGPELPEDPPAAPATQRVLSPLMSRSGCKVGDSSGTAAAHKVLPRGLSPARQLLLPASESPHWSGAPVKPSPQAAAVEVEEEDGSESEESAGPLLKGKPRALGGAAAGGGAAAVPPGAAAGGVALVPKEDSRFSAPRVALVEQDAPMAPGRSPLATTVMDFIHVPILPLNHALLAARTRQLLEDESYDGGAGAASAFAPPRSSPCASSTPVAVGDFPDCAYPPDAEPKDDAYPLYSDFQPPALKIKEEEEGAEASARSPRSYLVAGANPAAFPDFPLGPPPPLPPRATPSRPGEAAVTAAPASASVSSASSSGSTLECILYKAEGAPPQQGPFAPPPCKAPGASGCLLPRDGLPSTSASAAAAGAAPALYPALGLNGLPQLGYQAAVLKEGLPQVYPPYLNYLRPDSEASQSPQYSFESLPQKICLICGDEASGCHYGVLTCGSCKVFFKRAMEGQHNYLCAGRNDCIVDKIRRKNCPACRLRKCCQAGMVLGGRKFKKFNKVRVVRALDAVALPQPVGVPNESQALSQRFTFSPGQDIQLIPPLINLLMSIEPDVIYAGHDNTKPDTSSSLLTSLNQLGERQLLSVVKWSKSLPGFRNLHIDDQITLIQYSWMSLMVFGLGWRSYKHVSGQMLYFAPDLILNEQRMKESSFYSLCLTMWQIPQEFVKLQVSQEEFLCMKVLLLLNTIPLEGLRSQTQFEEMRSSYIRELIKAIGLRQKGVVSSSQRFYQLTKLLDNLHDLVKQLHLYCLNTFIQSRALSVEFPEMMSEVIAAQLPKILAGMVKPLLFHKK
Experimental: (4) T47D Cell Alkaline Phosphatase Assay
(a) Purpose: To identify progestins or antiprogestins by determining a compound's effect on alkaline phosphatase activity in T47D cells.
(b) Methods: • A. Reagents • (i) Culture medium: DMEM:F12 (1:1) (GIBCO, BRL) supplemented with 5% (v/v) charcoal stripped fetal bovine serum (not heat-inactivated), 100 U/mL penicillin, […] streptomycin, and 2 mM GlutaMax (GIBCO, BRL). • (ii) Alkaline Phosphatase Assay Buffer • I. 0.1 M Tris-HCl, pH 9.8, containing 0.2% the Triton™ X-100 reagent • II. 0.1 M Tris-HCl, pH 9.8 containing 4 mM p-nitrophenyl phosphate (Sigma). • B. Cell Culture and Treatment • Frozen T47D cells were thawed in a 37° C. water bath and diluted to 280,000 cells/mL in culture medium. To each well in a 96-well plate (Falcon, Becton Dickinson Labware), 180 μL of diluted cell suspension was added. Twenty μL of reference or test compounds diluted in the culture medium was then added to each well. […] The cells were incubated at 37° C. in a 5% CO2/humidified atmosphere for 24 hours. • Note: For high throughput screening, one concentration of each compound was tested at 0.3 mg/mL. […]
Square root-transformed data were used for analysis of variance and nonlinear dose response curve fitting for both agonist and antagonist modes. […] EC50 or IC50 values were calculated from the retransformed values. […]

Structure (SMILES) | Estimated average EC50 for uterine weight (decidual response) [1] | EC50 (PR) [nM] | Estimated EC50 for uterine weight (decidual response) [1]
C#C[C@]1(O)CC[C@H]2[C@@H]3CCC4=CC(=O)CC[C@@H]4[C@H]3CC[C@@]21CC [Levonorgestrel] | 0.10 mg/kg, s.c. |  | 0.08 mg/kg, s.c. and 0.12 mg/kg, s.c. and 0.09 mg/kg, s.c. (2×)
CC(=O)O[C@]1(C(C)=O)CC[C@H]2[C@@H]3C[C@H](C)C4=CC(=O)CC[C@]4(C)[C@H]3CC[C@@]21C [MPA, medroxyprogesterone acetate] |  |  | 0.42 mg/kg, s.c. and 0.39 mg/kg, s.c. (2×)

Continued, in another order:

Estimated average EC50 for uterine weight (decidual response) [1] | EC50 (PR) [nM] | Structure (SMILES) | Estimated EC50 for uterine weight (decidual response) [1]
 | 18.6 | Cn1c(C#N)ccc1-c1ccc2c(c1)C(C)(C)CC2O (stereo not shown) [Example 3, 5-(1-hydroxy-3,3-dimethyl-2,3-dihydro-1H-inden-5-yl)-1-methyl-1H-pyrrole-2-carbonitrile] | 
0.10 mg/kg, s.c. |  | C#C[C@]1(O)CC[C@H]2[C@@H]3CCC4=CC(=O)CC[C@@H]4[C@H]3C(=C)C[C@@]21CC [3-Ketodesogestrel] | 
5.62 mg/kg, s.c. |  | CC(=O)[C@H]1CC[C@H]2[C@@H]3CCC4=CC(=O)CC[C@]4(C)[C@H]3CC[C@]12C [Progesterone] | 5.50 mg/kg, s.c.
